Among the data in patent publication US6610710B2, “Phenylalanine derivatives” (Ajinomoto Co., Inc., priority 1999, dated 2003) are IC50 values, retold here.

Each structure is given as a SMILES string.

T1 sequence (P13612 34-1032): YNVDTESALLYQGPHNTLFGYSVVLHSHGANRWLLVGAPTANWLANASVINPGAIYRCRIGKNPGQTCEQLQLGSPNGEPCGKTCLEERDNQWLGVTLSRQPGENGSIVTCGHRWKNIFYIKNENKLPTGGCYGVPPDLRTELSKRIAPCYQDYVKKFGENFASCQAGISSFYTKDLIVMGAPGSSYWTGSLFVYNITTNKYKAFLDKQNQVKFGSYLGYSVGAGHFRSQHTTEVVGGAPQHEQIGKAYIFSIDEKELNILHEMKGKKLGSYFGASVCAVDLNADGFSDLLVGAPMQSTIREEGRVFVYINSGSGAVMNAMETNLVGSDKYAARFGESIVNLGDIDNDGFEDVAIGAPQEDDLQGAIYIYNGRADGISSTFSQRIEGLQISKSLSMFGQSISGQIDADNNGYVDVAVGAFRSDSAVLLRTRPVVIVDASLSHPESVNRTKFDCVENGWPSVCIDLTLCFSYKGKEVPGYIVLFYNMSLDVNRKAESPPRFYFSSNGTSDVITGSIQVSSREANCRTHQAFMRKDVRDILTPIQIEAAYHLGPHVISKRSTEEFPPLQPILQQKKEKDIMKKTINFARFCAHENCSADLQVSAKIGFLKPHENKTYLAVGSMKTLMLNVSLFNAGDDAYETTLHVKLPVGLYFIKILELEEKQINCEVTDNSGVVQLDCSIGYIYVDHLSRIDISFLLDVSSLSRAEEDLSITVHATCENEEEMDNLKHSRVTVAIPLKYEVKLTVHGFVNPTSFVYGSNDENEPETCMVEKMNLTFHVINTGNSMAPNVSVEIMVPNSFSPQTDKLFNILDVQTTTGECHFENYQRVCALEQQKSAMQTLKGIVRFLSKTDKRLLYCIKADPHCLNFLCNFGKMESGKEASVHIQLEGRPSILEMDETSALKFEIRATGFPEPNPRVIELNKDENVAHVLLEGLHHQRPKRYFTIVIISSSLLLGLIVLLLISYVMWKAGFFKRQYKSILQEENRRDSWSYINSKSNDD
T1 sequence (P05556 21-798): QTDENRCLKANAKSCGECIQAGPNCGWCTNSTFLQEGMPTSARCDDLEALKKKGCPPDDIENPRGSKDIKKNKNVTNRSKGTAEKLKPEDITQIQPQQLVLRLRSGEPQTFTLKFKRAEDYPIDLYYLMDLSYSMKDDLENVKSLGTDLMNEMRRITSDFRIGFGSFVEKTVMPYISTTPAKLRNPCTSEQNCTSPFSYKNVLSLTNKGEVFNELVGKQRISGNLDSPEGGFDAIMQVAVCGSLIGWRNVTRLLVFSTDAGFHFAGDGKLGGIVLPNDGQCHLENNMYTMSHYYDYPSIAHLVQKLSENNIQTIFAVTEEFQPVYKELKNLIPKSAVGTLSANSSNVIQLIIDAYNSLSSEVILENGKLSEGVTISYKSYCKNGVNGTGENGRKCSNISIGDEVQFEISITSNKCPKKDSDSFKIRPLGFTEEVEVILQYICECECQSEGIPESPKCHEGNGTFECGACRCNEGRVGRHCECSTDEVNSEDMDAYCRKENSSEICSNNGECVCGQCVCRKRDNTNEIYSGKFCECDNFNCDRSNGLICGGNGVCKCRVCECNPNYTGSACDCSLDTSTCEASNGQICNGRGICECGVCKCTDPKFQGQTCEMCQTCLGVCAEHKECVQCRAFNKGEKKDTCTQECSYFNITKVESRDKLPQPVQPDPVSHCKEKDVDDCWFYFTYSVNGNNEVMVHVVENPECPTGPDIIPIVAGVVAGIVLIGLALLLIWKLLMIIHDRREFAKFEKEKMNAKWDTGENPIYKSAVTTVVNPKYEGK

This experiment has as its target T1, integrin α4β1 (Jurkat cells) binding with recombinant human VCAM-1 (Homo sapiens, UniProt P05556+P13612).
T1 construct: cell strain Jurkat (ATCC TIB-152) of human T cells, known to express integrin α4β1; endogenous in cells; host or cells: Jurkat (ATCC TIB-152), human T cells
The experiment is described as follows: VCAM antagonistic activity (VCAM-1/α4β1 binding assay), Jurkat cell adhesion. Format: cell-based. The following applies: read-out: VCAM/α 4 β 1 antagonistic activity to integrin (IC50). Here is the method:
(Test Example) VCAM Antagonistic Activity (VCAM-1/α4β1 Binding Assay):
The capacity of a test substance antagonistic to the binding of cell strain Jurkat (ATCC TIB-152) of human T cells, known to express integrin α4β1, with VCAM-1 was determined. 100 μl/well of a solution (500 ng/ml ) of recombinant human VCAM-1 (R & D systems) diluted with buffer A (0.1 M NaHCO3, pH 9.6) was added to a micro titer plate having 96 wells (Nunc Maxisorp). After the incubation at 4° C. overnight, unbound VCAM-1 was removed by once washing with PBS. After completion of the washing, a buffer (buffer B) obtained by diluting Block Ace® (Dainippon Pharmaceutical Co., Ltd.) with PBS to 1/4 concentration was added in an amount of 150 μl /well. After the incubation at room temperature for 1 hour, buffer B was removed and the plate was washed with PBS once.
Jurkat cells were washed with Dulbecco modified Eagle medium (SIGMA, hereinafter referred to as “DMEM”) twice and then incubated in DMEM containing 10 μg/ml of Calcein-AM (Wako Pure Chemical Industries, Ltd.) at 37° C. in dark place for 30 minutes to label them with fluorescence. The cells were again suspended in a binding buffer (DMEM containing 20 mM HEPES, 0.1% BSA).
50 μl of a test substance of various concentrations obtained by the dilution with the binding buffer was added to the plate. Immediately thereafter, 50 μl (final volume: 100 μl/well) of the fluorescent Jurkat cells (4×10^6 cells/ml ) were added thereto, and they were incubated at room temperature for 30 minutes. After the shaking on a plate shaker (IKA MTS-4) at 800 rpm for 30 seconds, the solution was immediately removed to remove the unbound cells. The fluorescence quantity of the bound cells remaining in the wells was determined with a fluorescent plate reader (Wallac 1420 ARVO multi-label counter) (filter excitation wave length: 485 nm, emission wave length: 535 nm). The fluorescent strength thus obtained is proportional to the number of Jurkat cells bound to VCAM-1 and remaining on the plate. The binding rate of each test material in various concentrations was determined while the fluorescent strength of the test material-free well was determined to be 100%. The concentration IC50 for the 50% binding inhibition was calculated.
In the case of `COc1cccc(NNC(=O)[C@H]2CC[C@H](C(=O)N[C@@H](Cc3ccc(OCc4c(Cl)cccc4Cl)cc3)C(=O)O)CC2)c1` [Example 44], the IC50 lay within 5 to 25 µM.

`O=C(Nc1ccc(C[C@H](NC(=O)[C@H]2CC[C@H](C(=O)O)CC2)C(=O)O)cc1)c1snnc1-c1ccccc1` [Example 45, N-(Trans-4-carboxycyclohexane-1-carbonyl)-4-{[(4-phenyl-1,2,3-thiadiazole-5-yl)carbonyl]amino}-L-phenylalanine]: the IC50 lay within 1 to 5 µM.

Take `COc1ccc(NNC(=O)[C@H]2CC[C@H](C(=O)N[C@@H](Cc3ccc(OCc4c(Cl)cccc4Cl)cc3)C(=O)O)CC2)cc1` [Example 14]: the IC50 is 1 to 5 µM.

With `COc1cccc(OC)c1-c1ccc(C[C@H](NC(=O)[C@H]2CC[C@H](C(=O)O)CC2)C(=O)O)cc1` [Example 50, N-(Trans-4-carboxycyclohexane-1-carbonyl)-4-(2,6-dimethoxyphenyl)-L-phenylalanine], the IC50 is 1 to 5 µM.

Regarding `COc1ccc(NNC(=O)[C@H]2CC[C@H](C(=O)N[C@@H](Cc3ccc(NC(=O)c4snnc4-c4ccccc4)cc3)C(=O)O)CC2)cc1` [Example 46, N-[Trans-4-(4-methoxyphenylhydrazinocarbonyl)cyclohexane-1-carbonyl]-4-{[(4-phenyl-1,2,3-thiadiazole-5-yl)carbonyl]amino}-L-phenyl-alanine], the IC50 is 5 to 25 µM.

On to `COc1ccc(NNC(=O)[C@H]2CC[C@H](C(=O)N[C@@H](Cc3ccc(-c4c(OC)cccc4OC)cc3)C(=O)O)CC2)cc1` [Example 51, N-[Trans-4-(4-methoxyphenylhydrazinocarbonyl)cyclohexane-1-carbonyl]-4-(2,6-dimethoxyphenyl)-L-phenylalanine], for which the IC50 was 1 to 5 µM.

`O=C(O)[C@H](Cc1ccc(OCc2c(Cl)cccc2Cl)cc1)NC(=O)[C@H]1CC[C@H](C(=O)NNc2ccc(OC(F)(F)F)cc2)CC1` [Example 35]: the IC50 was in the range of 25 to 50 µM.

On to `O=C(O)[C@H](Cc1ccc(OCc2c(Cl)cccc2Cl)cc1)NC(=O)[C@H]1CC[C@H](C(=O)NCc2ccccc2)CC1` [Example 6], for which the IC50 was in the range of 25 to 50 µM.

`O=C(O)[C@H](Cc1ccc(OCc2c(Cl)cccc2Cl)cc1)NC(=O)[C@H]1CC[C@H](C(=O)NNc2ccccc2)CC1` [Example 3, N-(Trans-4-phenylhydrazinocarbonylcyclohexane-1-carbonyl)-O-(2,6-dichlorobenzyl)-L-tyrosine]: the IC50 was 25 to 50 µM.

In the case of `O=C(O)[C@H](Cc1ccc(OCc2c(Cl)cccc2Cl)cc1)NC(=O)[C@H]1CC[C@H](C(=O)O)CC1` [Example 2, N-(Trans-4-carboxycyclohexane-1-carbonyl)-O-(2,6-dichlorobenzyl)-L-tyrosine], the IC50 was 5 to 25 µM.

Take `O=C(O)[C@H](Cc1ccc(OCc2c(Cl)cccc2Cl)cc1)NC(=O)[C@H]1CC[C@H](C(=O)NNc2ccc(Br)cc2)CC1` [Example 4, N-[Trans-4-(4-bromophenylhydrazinocarbonyl)cyclohexane-1-carbonyl]-O-(2,6-dichlorobenzyl)-L-tyrosine]: the IC50 was in the range of 25 to 50 µM.

Take `Cc1ccc(NNC(=O)[C@H]2CC[C@H](C(=O)N[C@@H](Cc3ccc(OCc4c(Cl)cccc4Cl)cc3)C(=O)O)CC2)cc1` [Example 34]: the IC50 was 1 to 5 µM.
